One test addresses T1, Adrenergic α2B Receptor (Homo sapiens, UniProt P18089).
T1 construct: expressed in transfected cells; host or cells: CHO-K1 cells
T1 sequence (P18089 1-450): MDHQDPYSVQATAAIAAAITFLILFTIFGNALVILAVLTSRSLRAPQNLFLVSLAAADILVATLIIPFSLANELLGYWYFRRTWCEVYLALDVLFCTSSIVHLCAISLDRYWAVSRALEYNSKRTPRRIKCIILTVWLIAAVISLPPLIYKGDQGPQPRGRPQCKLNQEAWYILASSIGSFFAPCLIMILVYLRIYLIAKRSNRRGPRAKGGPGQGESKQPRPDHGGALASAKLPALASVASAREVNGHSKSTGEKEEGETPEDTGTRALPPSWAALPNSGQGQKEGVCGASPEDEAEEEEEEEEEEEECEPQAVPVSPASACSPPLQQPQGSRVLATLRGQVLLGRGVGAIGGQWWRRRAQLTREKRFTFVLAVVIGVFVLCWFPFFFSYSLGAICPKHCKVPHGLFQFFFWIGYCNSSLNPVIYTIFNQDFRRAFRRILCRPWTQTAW
The experiment in a line: Adrenergic α2B receptor radioligand binding. The following applies: 10 μM; 2.5 nM [3H] Rauwolscine. Here is the method:
(a) Adrenergic α2A Receptor: • Reference: S. Uhlen et al. J. Pharmacol. Exp. Ther., 271:1558-1565 (1994) • Source: Human recombinant insect Sf9 cells • Ligand: 1 nM [^3H] […] J. Pharmacol., 99:803-809, (1990) • Source: Wistar rat cerebral cortex • Ligand: 2 nM [3H]

Test [1] has as its system Catechol O-Methyl Transferase (COMT). The experiment in a line: Catechol O-Methyl Transferase (COMT) inhibition. Format: biochemical, Porcine. The following applies: for Percentage Inhibition of Enzyme Activity, COMT: 10 μM. Here is the method: Isomers B and C were tested for their ability to inhibit enzymes involved in the processing of monoamines in the CNS, namely Catechol O-Methyl Transferase (COMT), Monoamine Oxidase A and Monoamine Oxidase B. The assay methods used are described below and the results are set out in Table 7.
(a) Catechol O-Methyl Transferase (COMT) Inhibition • Source: Porcine liver • Substrate: 3 mM catechol+S-adenosyl-L-[^3H]methionine • Vehicle: 1% DMSO • Pre-incubation time/Temp: None • Incubation time: 60 minutes @ 37° C. • Incubation buffer: 100 mM potassium phosphate, 10 mM MgCl2, 3 mM DTT containing 12 units/ml adenosine deaminase, pH 7.4 • Quantitation method: Quantitation of [^3H] guiacol. • Significance criteria: ≧50% of maximum stimulation or inhibition (b) Monoamine Oxidase MAO-A Inhibition • Source: Human recombinant • Substrate: 50 μM kynuramine • Vehicle: 1% DMSO • Pre-incubation time/Temp: 15 minutes @ 37° C. • Incubation time: 60 minutes @ 37° C. • Incubation buffer: 100 mM KH2PO4, pH 7.4 • Quantitation method: Spectrofluorimetric quantitation of 4-hydroxyquinoline • Significance criteria: ≧50% of maximum stimulation or inhibition (c) Monoamine Oxidase MAO-B Inhibition • Source: Human recombinant • Substrate: 50 μM kynuramine • Vehicle: 1% DMSO • Pre-incubation time/Temp: 15 minutes @ 37° C. • Incubation time: 60 minutes @ 37° C. • Incubation buffer: 100 mM KH2PO4, pH 7.4 • Quantitation method: Spectrofluorimetric quantitation of 4-hydroxyquinoline • Significance criteria: ≧50% of maximum stimulation or inhibition

A further test concerns the target T2, Monoamine Oxidase MAO-B (Homo sapiens, UniProt P27338).
T2 sequence (P27338 1-520): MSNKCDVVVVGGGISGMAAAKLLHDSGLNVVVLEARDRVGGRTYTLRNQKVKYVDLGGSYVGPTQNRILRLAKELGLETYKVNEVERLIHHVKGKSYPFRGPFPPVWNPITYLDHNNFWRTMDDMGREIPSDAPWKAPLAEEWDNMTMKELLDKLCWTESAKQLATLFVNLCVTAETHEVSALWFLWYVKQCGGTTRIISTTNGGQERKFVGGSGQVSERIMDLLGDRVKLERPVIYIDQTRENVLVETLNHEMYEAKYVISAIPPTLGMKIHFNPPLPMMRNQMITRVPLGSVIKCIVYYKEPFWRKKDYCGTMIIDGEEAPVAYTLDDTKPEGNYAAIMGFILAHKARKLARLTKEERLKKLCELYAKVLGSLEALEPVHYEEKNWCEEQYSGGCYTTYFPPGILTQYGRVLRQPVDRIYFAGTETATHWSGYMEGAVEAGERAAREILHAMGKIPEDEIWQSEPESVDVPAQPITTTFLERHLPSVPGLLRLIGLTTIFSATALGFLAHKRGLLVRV
The experiment in a line: Monoamine Oxidase MAO-B inhibition. Format: biochemical. Particulars: for inhibition at 10 µM: read-out: Percentage Inhibition of Enzyme Activity, MAO-B. Here is the method: Isomers B and C were tested for their ability to inhibit enzymes involved in the processing of monoamines in the CNS, namely Catechol O-Methyl Transferase (COMT), Monoamine Oxidase A and Monoamine Oxidase B. The assay methods used are described below and the results are set out in Table 7. (a) Catechol O-Methyl Transferase (COMT) Inhibition • Source: […] None • Incubation time: 60 minutes @ 37° C. • Incubation buffer: 100 mM potassium phosphate, 10 mM MgCl2, 3 mM DTT containing 12 units/ml adenosine deaminase, pH 7.4 • Quantitation method: […]

Regarding `COc1cc2c(cc1OC)[C@H]1C[C@H](O)[C@@H](CC(C)C)CN1CC2` (single isomer, unassigned) [Isomer B, 3,11b-cis-dihydrotetrabenazine], the “Percentage Inhibition of Specific Binding, α2B Receptor” value at Adrenergic α2B Receptor stood at 14%. Moreover, in test [1], the “inhibitory activity against COMT (in words)” value is reported as “no inhibitory activity” and the “Percentage Inhibition of Enzyme Activity, COMT” value is given as −12%. Moreover, at Monoamine Oxidase MAO-B, the “inhibitory activity against monoamine oxidase isoform B (in words)” value was “no inhibitory activity” and the inhibition at 10 µM is -5%.

In the case of `COc1cc2c(cc1OC)[C@H]1C[C@@H](O)[C@@H](CC(C)C)CN1CC2` (single isomer, unassigned) [Isomer C, 3,11b-cis-dihydrotetrabenazine], the “Percentage Inhibition of Specific Binding, α2B Receptor” value at Adrenergic α2B Receptor is listed as −7%. Moreover, in test [1], the “inhibitory activity against COMT (in words)” value is “no inhibitory activity” and the “Percentage Inhibition of Enzyme Activity, COMT” value is −22%. In addition, on Monoamine Oxidase MAO-B, the “inhibitory activity against monoamine oxidase isoform B (in words)” value is given as “no inhibitory activity” and the inhibition at 10 µM was -5%.

These data come from patent US20080108645A1, “Dihydrotetrabenazines And Pharmaceutical Compositions Containing Them” (CAMBRIDGE LABORATORIES, (IRELAND), LTD., priority 2004, published 2008).
